# Results: paper PMC6001238, “Iterative Chemical Engineering of Vancomycin Leads to Novel Vancomycin Analogs With a High in Vitro Therapeutic Index” (Frontiers in Microbiology, 2018)
# Where two headings read alike, the source gives them in different places.
# Legend:
# [1] = system: Murine leukemia (L1210) cells; experiment: Cytostatic activity, L1210 cell proliferation; type: cell-based; details: mean ± SD of three experiments; highest concentration tested 250 µM; 2 days; read-out: Toxicity (IC50) L1210
# In short: (§1)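 Readout: Coulter cell number after drug exposure at 37°C. Durations differ by line (L1210 2 days; CEM 3 days; HeLa 4 days). Stock suspension 300,000–500,000 cells/mL, diluted by mixing with compound. Endpoint: IC50 vs negative control.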
# [2] = system: MRSA KS2; experiment: MIC, broth microdilution, MRSA KS2; type: cell-based, Staphylococcus aureus
# In short: (§2)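 Following CLSI antimicrobial susceptibility standards, organisms were tested by broth microdilution. Controls comprised ultrapure water plus broth left uninoculated. For a single condition, 10 μM vancomycin (final) accompanied the analog or control agent.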
# [3] = system: S. aureus VRSA; experiment: MIC, broth microdilution, vancomycin-resistant S. aureus (VRSA); type: cell-based, Staphylococcus aureus
# In short: as §2
# [4] = system: MRSA KS1; experiment: MIC, broth microdilution, MRSA KS1; type: cell-based, Staphylococcus aureus
# In short: as §2
# [5] = system: VE 149 (VanB); experiment: MIC, VanB-type VRE strain VE 149; type: cell-based, Enterococcus; details: VE 149, VanB; read-out: MIC
# In short: as §2
# [6] = system: MRSA; experiment: Minimum bactericidal concentration against MRSA; type: cell-based, Staphylococcus aureus
# Protocol: Plates were incubated overnight at 37°C and colony growth was inspected.
# [7] = system: Clostridium difficile ATJ ribotype 014/20; experiment: MIC, plate drop assay, C. difficile ATJ ribotype 014/20; type: cell-based; details: C. difficile ATJ ribotype 014/20
# In short: (§3)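 Twofold dilution series of test compounds were spotted onto C. difficile lawns in 0.4% BHI agar containing added calcium and magnesium salts. After overnight anaerobic incubation at 37°C, growth inhibition was scored by spot clearing; triplicate runs, ultrapure water negative control.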
# [8] = system: human cervix carcinoma (HeLa) cells; experiment: Cytostatic activity, HeLa cell proliferation; type: cell-based; details: mean ± SD of three experiments; highest concentration tested 250 µM; 4 days; read-out: Toxicity (IC50) HeLa
# In short: as §1
# [9] = system: VE 150 (VanB); experiment: MIC, VanB-type VRE strain VE 150; type: cell-based, Enterococcus; details: VE 150, VanB; read-out: MIC
# In short: as §2
# [10] = system: Clostridium difficile AIU ribotype 027; experiment: MIC, plate drop assay, C. difficile AIU ribotype 027; type: cell-based; details: for MIC-fold improvement vs. vancomycin: C. difficile AIU ribotype 027
# In short: as §3
# [11] = system: E. faecalis VRE 6; experiment: MIC, broth microdilution, vancomycin-resistant E. faecalis VRE 6 (VanA); type: cell-based, Enterococcus faecalis
# In short: as §2
# [12] = system: 33 clinical VRE isolates; experiment: MIC against a set of 33 clinical VRE isolates (range, MIC50, TI); type: cell-based, Enterococcus faecalis
# In short: as §2
# [13] = system: human T-lymphocyte (CEM) cells; experiment: Cytostatic activity, CEM cell proliferation; type: cell-based; details: mean ± SD of three experiments; highest concentration tested 250 µM; 3 days; read-out: Toxicity (IC50) CEM
# In short: as §1
# [14] = system: VE 157 (VanB); experiment: MIC, VanB-type VRE strain VE 157; type: cell-based, Enterococcus; details: VE 157, VanB; read-out: MIC
# In short: as §2
# [15] = system: VE 82 (VanC1); experiment: MIC, VanC1-type VRE strain VE 82; type: cell-based, Enterococcus gallinarum; details: VE 82, VanC1; read-out: MIC
# In short: as §2
# [16] = system: S. aureus VISA/HIP5827; experiment: MIC, broth microdilution, vancomycin-intermediate S. aureus VISA HIP5827; type: cell-based, Staphylococcus aureus
# In short: as §2
# [17] = system: MRSA KS89; experiment: MIC, broth microdilution, MRSA KS89; type: cell-based, Staphylococcus aureus
# In short: as §2
# [18] = system: E. faecalis VRE 29; experiment: MIC, broth microdilution, vancomycin-resistant E. faecalis VRE 29 (VanA); type: cell-based, Enterococcus faecalis
# In short: as §2
# [19] = system: L1210, CEM and HeLa cell lines; experiment: Cytostatic activity, average or summary over L1210, CEM and HeLa; type: cell-based
# In short: as §1
# [20] = system: VE 152 (VanB); experiment: MIC, VanB-type VRE strain VE 152; type: cell-based, Enterococcus; details: VE 152, VanB; read-out: MIC
# In short: as §2
# [21] = system: S. aureus VSSA (ATCC 6538); experiment: MIC, broth microdilution, vancomycin-sensitive S. aureus (VSSA/MSSA, ATCC 6538); type: cell-based, Staphylococcus aureus
# In short: as §2
# [22] = system: E. faecalis VSE 1; experiment: MIC, broth microdilution, vancomycin-sensitive E. faecalis (VSE 1); type: cell-based, Enterococcus faecalis
# In short: as §2
# [23] = system: 24 clinical MRSA isolates; experiment: MIC against a set of 24 clinical MRSA isolates (range, MIC50, TI); type: cell-based, Staphylococcus aureus
# In short: as §2
# [24] = system: E. faecalis VRE 53; experiment: MIC, broth microdilution, vancomycin-resistant E. faecalis VRE 53 (VanA); type: cell-based, Enterococcus faecalis
# In short: as §2
# [25] = system: VE 148 (VanB); experiment: MIC, VanB-type VRE strain VE 148; type: cell-based, Enterococcus; details: VE 148, VanB; read-out: MIC
# In short: as §2
# [26] = system: MRSA KS6; experiment: MIC, broth microdilution, MRSA KS6; type: cell-based, Staphylococcus aureus
# In short: as §2
# [27] = system: E. faecalis VRE 37; experiment: MIC, broth microdilution, vancomycin-resistant E. faecalis VRE 37 (VanA); type: cell-based, Enterococcus faecalis
# In short: as §2
smiles,measurement,setting,value
CN[C@H](CC(C)C)C(=O)N[C@H]1C(=O)N[C@@H](CC(N)=O)C(=O)N[C@H]2C(=O)N[C@H]3C(=O)N[C@H](C(=O)N[C@H](C(=O)NCC(=O)Nc4ccc5c(c4)Cc4ccccc4-5)c4cc(O)cc(O)c4-c4cc3ccc4O)[C@H](O)c3ccc(c(Cl)c3)Oc3cc2cc(c3O[C@@H]2O[C@H](CO)[C@@H](O)[C@H](O)[C@H]2O[C@H]2C[C@](C)(N)[C@H](O)[C@H](C)O2)Oc2ccc(cc2Cl)[C@H]1O [Vanc-42],IC50,[1],177 ± 103 µM
same,MIC-fold improvement vs. vancomycin,"[2]; MRSA KS2, ratio of MIC of vancomycin and MIC of analogue",4
same,MIC,"[2]; Staphylococcus aureus MRSA KS2, read-out: MIC",0.20 µM
same,MIC,"[3]; Staphylococcus aureus VRSA, read-out: MIC",1.56 µM
same,MIC-fold improvement vs. vancomycin,"[3]; VRSA, ratio of MIC of vancomycin and MIC of analogue",64
same,MIC-fold improvement vs. vancomycin,"[4]; MRSA KS1, ratio of MIC of vancomycin and MIC of analogue",2
same,MIC,"[4]; Staphylococcus aureus MRSA KS1, read-out: MIC",0.39 µM
same,MIC,[5],3.13 µM
same,MBC relative to MIC,[6],MBC equaling their MIC values
same,MIC-fold improvement vs. vancomycin,[7],up to 45
same,MIC-fold improvement vs. vancomycin,[7]; listed as Vanc- 42,22
same,IC50,[8],> 250 µM
same,MIC,[9],3.13 µM
same,MIC-fold improvement vs. vancomycin,[10],≤ 58
same,MIC,"[10]; C. difficile AIU ribotype 027, plate drop assay",0.78 µM
same,MIC-fold improvement vs. vancomycin,[10]; listed as Vanc- 42,58
same,MIC,"[11]; Enterococcus faecalis VRE 6 (vancomycin-resistant), read-out: MIC",0.78 µM
same,MIC-fold improvement vs. vancomycin,"[11]; VRE 6, ratio of MIC of vancomycin and MIC of analogue",256
same,MIC Range,[12]; 33 clinical VRE isolates,0.39 to 6.25 µM
same,TI (IC50/MIC50),"[12]; in vitro therapeutic index, VRE",111
same,MIC50,"[12]; median MIC, 33 clinical VRE isolates, read-out: MIC50",1.56 µM
same,IC50,[13],92 ± 3 µM
same,MIC,[14],3.13 µM
same,MIC,[15],1.56 µM
same,MIC,"[16]; Staphylococcus aureus VISA/HIP5827, read-out: MIC",0.78 µM
same,MIC-fold improvement vs. vancomycin,"[16]; VISA/HIP5827, ratio of MIC of vancomycin and MIC of analogue",8
same,MIC-fold improvement vs. vancomycin,"[17]; MRSA KS8, ratio of MIC of vancomycin and MIC of analogue",4
same,MIC,"[17]; Staphylococcus aureus MRSA KS8, read-out: MIC",0.20 µM
same,MIC,"[18]; Enterococcus faecalis VRE 29 (vancomycin-resistant), read-out: MIC",1.56 µM
same,MIC-fold improvement vs. vancomycin,"[18]; VRE 29, ratio of MIC of vancomycin and MIC of analogue",256
same,IC50,"[19]; average IC50 used for TI in Table S5, >250 entered as 250, read-out: IC50",173 µM
same,IC50,"[19]; average of L1210, CEM and HeLa, read-out: Toxicity (IC50) Average",173 µM
same,MIC,[20],3.13 µM
same,MIC,"[21]; Staphylococcus aureus VSSA, read-out: MIC",0.78 µM
same,MIC-fold improvement vs. vancomycin,"[21]; VSSA, ratio of MIC of vancomycin and MIC of analogue",1
same,MIC,"[22]; Enterococcus faecalis VSE 1 (vancomycin-sensitive), read-out: MIC",0.20 µM
same,MIC-fold improvement vs. vancomycin,"[22]; VSE 1, ratio of MIC of vancomycin and MIC of analogue",8
same,MIC Range,[23]; 24 clinical MRSA isolates,0.10 to 0.39 µM
same,TI (IC50/MIC50),"[23]; in vitro therapeutic index, MRSA",865
same,MIC50,"[23]; median MIC, 24 clinical MRSA isolates, read-out: MIC50",0.20 µM
same,MIC,"[24]; Enterococcus faecalis VRE 53 (vancomycin-resistant), read-out: MIC",12.5 µM
same,MIC-fold improvement vs. vancomycin,"[24]; VRE 53, ratio of MIC of vancomycin and MIC of analogue",32
same,MIC,[25],3.13 µM
same,MIC-fold improvement vs. vancomycin,"[26]; MRSA KS6, ratio of MIC of vancomycin and MIC of analogue",4
same,MIC,"[26]; Staphylococcus aureus MRSA KS6, read-out: MIC",0.20 µM
same,MIC,"[27]; Enterococcus faecalis VRE 37 (vancomycin-resistant), read-out: MIC",3.13 µM
same,MIC-fold improvement vs. vancomycin,"[27]; VRE 37, ratio of MIC of vancomycin and MIC of analogue",128
